Measurements taken from patent US7041694B1, “Cyclooxygenase-2 inhibition” (Cornell Research Foundation, Inc., priority 1997, dated 2006).

Assays:
[1] = system: patient with alcoholic hepatitis; experiment: Treatment of a patient with alcoholic hepatitis (Example I); assay type: in vivo; conditions: 6 mg/kg oral, daily; at the end of three weeks
Protocol: A patient with alcoholic hepatitis is admitted to a hospital complaining of nausea and upper abdominal pain. Liver function test results are total bilirubin of 4.0 mg/dl, direct bilirubin of 3.1 mg/dl, ALT of 100 IU/L, AST of 120 IU/L and prothrombin time of 15.1 seconds.
At the end of three weeks, the nausea and upper abdominal pain have resolved. Each of the blood tests has improved.

[2] = system: patient with autoimmune hepatitis; experiment: Treatment of a patient with autoimmune hepatitis (Example II); assay type: in vivo; conditions: 6 mg/kg oral for two months
Protocol: The patient is a person with new onset nausea, loss of appetite and right upper quadrant tenderness. They are noted to have elevated liver chemistries. Serologic workup is notable for positive antinuclear and antismooth muscle antibodies. They are considered to have autoimmune hepatitis. Liver biopsy is consistent with this diagnosis. […] The patient is subsequently maintained on an oral dose of 6 mg/kg of the same drug.

| SMILES | blood tests (liver function tests: total bilirubin, direct bilirubin, ALT, AST, prothrombin time) [1] | nausea and upper abdominal pain [1] | symptoms (nausea, loss of appetite, right upper quadrant tenderness) [2] |
| --- | --- | --- | --- |
| NS(=O)(=O)c1ccc(-n2nc(C(F)(F)F)cc2-c2ccc(Cl)cc2)cc1 [4-[5-(4-Chlorophenyl)-3-(trifluoromethyl)-1H-pyrazol-1-yl]benzenesulfonamide] | improved | resolved | resolution of symptoms |
| Cc1ccc(-c2cc(C(F)(F)F)nn2-c2ccc(S(N)(=O)=O)cc2)cc1 [4-[5-(4-Methylphenyl)-3-(trifluoromethyl)-1H-pyrazol-1-yl]benzenesulfonamide] | same result | – | – |
